Values of other authors in patent publication US20020068688A1, “Cleaning compositions” (Unilever Home & Personal Care USA, Division of Conopco, Inc., priority 2000, published 2002).

Conditions: grams of solid to form a saturated solution in 100 grams of water at 20° C.

Compound: NC(N)=O [Urea]
- Water Solubility: >100 g/100 g
